# Measurements taken from paper PMC11359831, “Stepwise Structural Simplification of the Dihydroxyanthraquinone Moiety of a Multitarget Rhein-Based Anti-Alzheimer Lead to Improve Drug Metabolism and Pharmacokinetic Properties” (Pharmaceutics, 2024).
# Several values for one entry are separate records, joined by “and”; a condition that tells them apart may be missing. Equal entries are not always repeated.
# How the values were obtained:
# [1] = Fish embryo acute toxicity (FET) test in zebrafish embryos; type: in vivo; conditions: in vivo, other: embryos exposed by immersion in the test solution, pH 7.4, 72 h of exposure, read-out: LC50 (CI95)
# Description: Test solutions were freshly prepared for each experiment and were renewed every 24 h. The maximum tested compound concentration was 100 µM and four additional concentrations were also prepared by applying a 1:2 dilution factor. A 1% DMSO solution was used as a vehicle control.
# Six-well plates were incubated at 26 ± 1 °C under a 14:10 light:dark cycle for 72 h. To assess the potential lethality of the new compounds, we followed, every 24 h, the four parameters that are outlined in the OECD Guideline No. 236: embryo coagulation, lack of somite formation, non-detachment of the tail, and absence of a heartbeat (from 48 h onward). The percentage of lethality at each concentration that was tested for the new compounds was recorded and expressed as mean ± SEM from three or more independent experiments. […] LOAEC values were determined through an ANOVA test with Bonferroni’s post-hoc test for multiple comparisons (significance threshold: p < 0.05).
# tau aggregation = molecular target: T1, tau aggregation (Homo sapiens, UniProt P10636); assay: Tau aggregation inhibition in genetically modified E. coli cells (Th-S fluorescence); type: cell-based, Escherichia coli; conditions: live E. coli cells overexpressing tau; for inhibition at 10 µM: read-out: Tau Aggregation % inh. @10 µM
# T1 construct: expressed in transfected cells; host or cells: E. coli BL21 (DE3) bearing pTARA and pRKT42
# Description: For tau overexpression, M9 minimal medium (10 mL) containing glucose (0.5%), ampicillin (50 μg/mL), chloramphenicol (12.5 μg/mL), and E. coli BL21 (DE3) cells bearing the pTARA plasmid, which carries the RNA polymerase gene of the T7 phage (T7RP) under control of the PBAD promoter, and subsequent transformation with the pRKT42 vector were used instead. In this case, the overnight culture for a 1:500 dilution was added to fresh M9 minimal medium containing glucose (0.5%), chloramphenicol (12.5 μg/mL), ampicillin (50 μg/mL), and Th-S (250 µM).
# (§1) For Aβ42 overexpression, the corresponding E. coli cell cultures were kept growing overnight (37 °C; 250 rpm) until they reached an OD600 = 0.6. These cultures (980 μL) were added to a mixture of 10 μL of a solution of the new compounds in DMSO and 10 μL of 100 mM isopropyl 1-thio-β-D-galactopyranoside (IPTG), to reach a final compound concentration of 10 μM. The same procedure was used for tau overexpression but employing 10 μL of 25% arabinose instead of IPTG. The resulting E. coli cultures were kept growing overnight (37 °C; 1400 rpm) using an Eppendorf Thermomixer (Hamburg, Germany). To prepare a negative control for the assay, showing the highest amount of the amyloidogenic protein, the same quantity of DMSO, without the compounds to be tested, was added to the sample. With the double purpose of obtaining positive controls devoid of the amyloidogenic proteins and assessing the potential intrinsic toxicity of the new compounds, we also prepared samples that had not been treated with either IPTG or arabinose (non-induced samples).
# (§2) To assess the inhibitory activity of compounds 4–7 on Aβ42 and tau aggregation within E. coli cells, a fluorescence assay was employed, using Th-S ([…] stock solution, T1892, Sigma, St. Louis, MO, USA) in double-distilled water (Milli-Q system, Millipore, Bay City, MI, USA) and an Aminco Bowman Series 2 luminescence spectrophotometer (Aminco-Bowman AB2, SLM Aminco, Rochester, NY, USA), working at 25 °C in the wavelength range of 460–600 nm, with λex = 445 nm, slit widths of 4 nm, and λem = 485 nm. The results are given as the average of nine independent experiments, each performed in triplicate.
# [2] = Plasma stability, human plasma; type: in vitro ADME; conditions: 37 °C; for remaining at 1 h, 5 μM: read-out: Plasma Stability % Remaining Compound, human, 1 h
# human serum BChE (hBChE) = molecular target: T2, human serum BChE (hBChE) (Homo sapiens, UniProt P06276); assay: biochemical
# T2 construct: human serum BChE (hBChE); purchased Sigma (Milan, Italy); host or cells: human serum
# Description: (§5) The stock and assay solutions were prepared as follows:
# Stock hBChE solution: solution of the lyophilized powder in 0.1% aq. gelatin.
# (§6) Stock solutions of the new compounds: 1 mM solutions in methanol, with further dilutions in this solvent to the desired concentrations.
# Aβ42 aggregation = molecular target: T3, Aβ42 aggregation (Homo sapiens, UniProt P05067); assay: Aβ42 aggregation inhibition in genetically modified E. coli cells (Th-S fluorescence); type: cell-based, Escherichia coli; conditions: for inhibition at 10 µM: live E. coli cells overexpressing Aβ42, read-out: Aβ42 Aggregation % inh. @10 µM
# T3 construct: expressed in transfected cells; host or cells: E. coli BL21 (DE3) bearing pET28a-Aβ42
# Description: For Aβ42 overexpression, M9 minimal medium (10 mL) containing kanamycin (50 μg/mL) was added to a colony of E. coli BL21 (DE3) competent cells, bearing the pET28a plasmid (Novagen, Inc., Madison, WI, USA), which contains the DNA sequence encoding for Aβ42. After overnight culture, the volume necessary to obtain a 1:500 dilution was added to fresh M9 minimal medium that contained kanamycin (50 μg/mL) and thioflavin-S (Th-S, 250 µM).
# as §1, §2
# [3] = molecular target: T4, human recombinant AChE (hAChE) (Homo sapiens, UniProt P22303); assay: biochemical; conditions: human recombinant AChE; Ellman method; mean ± standard error
# T4 construct: purchased Sigma (Milan, Italy)
# Description: as §5
# Stock hAChE solution: solution of the lyophilized powder in 0.1% Triton X-100/0.1 M potassium phosphate (pH 8.0).
# as §6
# [4] = Plasma stability, rat plasma; type: in vitro ADME; conditions: 37 °C; for remaining at 1 h, 5 μM / remaining at 6 h, 5 μM: rat, plasma; for remaining at 1 h, 5 μM: read-out: Plasma Stability % Remaining Compound, rat, 1 h; for remaining at 6 h, 5 μM: read-out: Plasma Stability % Remaining Compound, rat, 6 h
# Description: (§3) The plasma stability of the new compounds was tested using in human, mouse, and rat plasma (Seralab). One hundred μL of 5 μM solutions of the new compounds in plasma were plated and incubated at 37 °C for 0, 60, 120, and 360 min, and then treated with 300 μL of acetonitrile and centrifuged (4000× g; 60 min; 4 °C). Sample quantification was performed by UPLC/MS/MS analysis of the resulting supernatant using a UPLC QSM Waters Acquity apparatus, equipped with a Waters ACQUITY BEH C18 1.7 μm 2.1 × 50 mm column, eluting with 0.1% formic acid in water or in acetonitrile, with a flow of 0.6 mL/min. The gradient indicated in Table 1 was used in this assay.
# (§4) Compound concentration was calculated from the MS peak areas and expressed as the percentage of remaining compound at the different tested times.
# [5] = Plasma stability, mouse plasma; type: in vitro ADME; conditions: 37 °C; for remaining at 1 h, 5 μM: read-out: Plasma Stability % Remaining Compound, mouse, 1 h; for remaining at 6 h, 5 μM: read-out: Plasma Stability % Remaining Compound, mouse, 6 h
# Description: as §3, §4
# physchem = conditions: PBS (99%) with DMSO (1%), 37 °C, aqueous buffer, kinetic from dmso stock, kinetic solubility
# Description: The resulting solutions were incubated at 37 °C. After 2 h incubation, the samples were read using a BMG LABTECH NEPHELOstar Plus laser nephelometer (Ortenberg, Germany).
# in vitro = conditions: PAMPA, PAMPA-BBB
# Description: The parallel artificial membrane permeability assay for the blood–brain barrier (PAMPA-BBB) [41] was used to assess the in vitro brain permeability of the new compounds. For the assay, the compounds were dissolved in mixtures of PBS and ethanol (70:30).
# [6] = Solubility class, classification after ref 70
# [7] = Solubility, 2 h, DMSO (1%)/PBS (99%)
# [8] = Solubility, 2 h, PBS with 1% DMSO, nephelometry
# [9] = Brain permeability class, Table 4
# T2 sequence (P06276 29-602): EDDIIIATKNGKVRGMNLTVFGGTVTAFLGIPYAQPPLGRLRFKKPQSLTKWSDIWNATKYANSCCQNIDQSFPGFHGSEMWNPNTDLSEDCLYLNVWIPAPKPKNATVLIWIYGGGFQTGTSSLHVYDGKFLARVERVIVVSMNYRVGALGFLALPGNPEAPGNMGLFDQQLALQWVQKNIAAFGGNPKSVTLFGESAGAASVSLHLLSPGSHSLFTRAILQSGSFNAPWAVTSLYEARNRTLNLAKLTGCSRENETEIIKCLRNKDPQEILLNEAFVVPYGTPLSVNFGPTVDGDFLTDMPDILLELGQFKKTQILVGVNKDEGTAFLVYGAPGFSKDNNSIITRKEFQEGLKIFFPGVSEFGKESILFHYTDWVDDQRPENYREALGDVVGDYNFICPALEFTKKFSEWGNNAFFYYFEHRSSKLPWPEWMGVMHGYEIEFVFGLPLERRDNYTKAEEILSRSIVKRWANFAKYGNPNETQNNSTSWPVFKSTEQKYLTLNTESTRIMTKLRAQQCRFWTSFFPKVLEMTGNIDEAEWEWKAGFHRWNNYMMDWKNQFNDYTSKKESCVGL
# T3 sequence (P05067 672-713): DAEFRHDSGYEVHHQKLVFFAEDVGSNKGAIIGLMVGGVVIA
# T1 sequence (P10636 other isoform, or with tags, fused parts or gaps): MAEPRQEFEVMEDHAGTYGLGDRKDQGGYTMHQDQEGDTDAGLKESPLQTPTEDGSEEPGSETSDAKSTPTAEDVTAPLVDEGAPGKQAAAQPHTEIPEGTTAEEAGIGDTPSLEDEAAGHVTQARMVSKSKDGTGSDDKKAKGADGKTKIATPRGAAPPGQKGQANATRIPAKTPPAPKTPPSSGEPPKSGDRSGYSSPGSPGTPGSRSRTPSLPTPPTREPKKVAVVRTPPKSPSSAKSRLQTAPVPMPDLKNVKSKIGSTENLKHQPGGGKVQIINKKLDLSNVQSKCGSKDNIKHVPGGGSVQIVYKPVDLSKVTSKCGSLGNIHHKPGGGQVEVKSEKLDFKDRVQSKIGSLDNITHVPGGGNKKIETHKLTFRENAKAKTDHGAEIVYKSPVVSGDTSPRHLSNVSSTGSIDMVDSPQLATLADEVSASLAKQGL
# T4 sequence (P22303 32-614): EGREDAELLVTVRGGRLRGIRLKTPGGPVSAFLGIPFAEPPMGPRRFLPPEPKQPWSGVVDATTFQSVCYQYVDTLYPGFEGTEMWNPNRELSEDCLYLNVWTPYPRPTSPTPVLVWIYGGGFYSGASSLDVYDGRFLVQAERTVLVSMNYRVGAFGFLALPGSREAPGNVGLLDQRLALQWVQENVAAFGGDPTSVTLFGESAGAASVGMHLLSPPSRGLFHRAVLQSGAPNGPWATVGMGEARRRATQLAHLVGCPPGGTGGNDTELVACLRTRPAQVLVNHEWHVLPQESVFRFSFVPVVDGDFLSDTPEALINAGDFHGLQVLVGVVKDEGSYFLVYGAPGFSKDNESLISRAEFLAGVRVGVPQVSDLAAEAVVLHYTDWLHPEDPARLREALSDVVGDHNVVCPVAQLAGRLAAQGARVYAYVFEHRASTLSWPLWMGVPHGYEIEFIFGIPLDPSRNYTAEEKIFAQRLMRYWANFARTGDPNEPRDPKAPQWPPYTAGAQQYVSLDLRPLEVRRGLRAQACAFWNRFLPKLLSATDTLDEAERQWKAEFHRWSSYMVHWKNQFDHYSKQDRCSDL
Compound,LC50 at 72 h [1] [nM],inhibition at 10 µM (tau aggregation) [%],"remaining at 1 h, 5 μM ([2]; 5 μM) [%]",inhibition at 10 µM (Aβ42 aggregation) [%],"remaining at 1 h, 5 μM [4] [%]","remaining at 6 h, 5 μM ([4]; 6 h) [%]","remaining at 1 h, 5 μM [5] [%]","remaining at 6 h, 5 μM [5] [%]",solubility at 2 h (physchem; [6]) [µg/mL],solubility at 2 h (physchem; [7]) [µg/mL],solubility at 2 h (physchem; [8]) [µM],Papp (in vitro; [9]) [×10⁻⁶ cm/s],further results
"CC(=O)c1cccc(C(=O)NCCCCCCCCCNc2c3c(nc4cc(Cl)ccc24)CC2C=C(C)CC3C2)c1 (stereo not drawn) [Compound 7, 3-Acetyl-N-{9-[(3-chloro-6,7,10,11-tetrahydro-9-methyl-7,11-methanocycloocta[b]quinolin-12-yl)amino]nonyl}benzamide]",> 100000,68,100,73,98.9,86,97.5,96,10 to 100,11,18,> 5.2,"Tau Aggregation % inh. @10 µM (tau aggregation): 68.3 ± 3.1%; remaining at 6 h, 5 μM ([2]; 6 h, 5 μM, read-out: Plasma Stability % Remaining Compound, human, 6 h): 100%; IC50 (human serum BChE (hBChE); human serum BChE, Ellman method, mean ± standard error): 13 nM and 12.7 nM; increase in hBChE inhibitory activity relative to hybrid 3 (human serum BChE (hBChE); relative to dihydroxyanthraquinone hybrid 3): 40–50 fold; Aβ42 Aggregation % inh. @10 µM (Aβ42 aggregation; live E. coli cells overexpressing Aβ42): 73.1 ± 4.8%; IC50 [3]: 6 nM and 5.97 nM; Plasma Stability % Remaining Compound, rat, 6 h ([4]; 6 h, 5 μM): 85.8%; Papp (in vitro; Brain Permeability Pe, mean ± SD): 16.5 ± 1.1 ×10⁻⁶ cm/s"
CC1=CC2Cc3nc4cc(Cl)ccc4c(NCCCCCCCCCNC(=O)c4cc(O)c5c(c4)C(=O)c4cccc(O)c4C5=O)c3C(C1)C2 (stereo not drawn) [Compound 3],> 100000,58.2 ± 1.8,100,74.2 ± 1.6,98,67.9,97.2,92.9,< 10,6.3,8.6,> 5.2,% hydrolyzed in human plasma after 6 h ([2]; 6 h): 15.6%
